This is an account of results in patent publication US7682351B2, “Method for infusing insulin to a subject to improve impaired hepatic glucose processing” (priority 2003, dated 2010).

Entries after “also recorded” stand apart in the source; their conditions may differ.

Holding throughout (format): in vivo, human
Test [1] relates to diabetic patients with heart disease. Nature of the test: Case reports: diabetic heart disease patients treated with the subject method. From the text:
(§1) The preferred embodiment of the method for delivering insulin pulses to a patient to improve impaired hepatic glucose processing is as follows. On the morning of the procedure, the patient is preferably seated in a blood drawing chair and a 23 gauge needle or catheter is preferably inserted into a hand or forearm vein to obtain vascular access. However, any system of such access may accomplish the needed result, including indwelling catheters, PICC lines and PORTACATHS. After a short equilibration period, the patient is asked to make a circulating glucose measurement prior to starting the actual infusion of insulin. A steady baseline circulating glucose level is achieved when two identical consecutive measurements taken 5 minutes apart is obtained. It is preferable that patients have circulating glucose levels close to 200 mg/dl prior to using the infusion method. In the case of pregnant diabetic women, however, every attempt is made to keep the maximum circulating glucose level to 150 mg/dl or less.
After the circulating glucose measurement has been taken and the patient has the proper circulating glucose starting level, the patient is asked to consume a liquid or food containing glucose. The amount of glucose given to s diabetic patient ranges from 60 to 100 grams, but for small framed people the amount could be as low as 40 grams of glucose. However, the amount of initial glucose given to the patient may vary. Liquid or food containing glucose is consumed by the patient to prevent the patient from becoming hypoglycemic. The preferred liquid or food is GLUCOLA, but any similar type of liquid or high glycemic food, including but not limited to cake and bread, containing glucose may be given to the patient. […]
(§2) For all of the above listed examples, after the initial few days of treatment, the patients underwent treatment once a week, each treatment day consisting of three infusions of insulin accompanied by ingestion of carbohydrates. […] The patients' circulating glucose was measured once every thirty minutes by the finger stick method currently used by most diabetic patients. […]

For test [2], the system named is patients suffering from senile dementia. Nature of the test: Senile dementia in diabetic patients treated with the method (Hepatic Activation).
Description: as §1
After the circulating glucose measurement has been taken and the patient has the proper circulating glucose starting level, the patient is asked to consume a liquid or food containing glucose. The amount of glucose given to s diabetic patient ranges from 60 to 100 grams, but for small framed people the amount could be as low as 40 grams of glucose. […]

The test system of test [3] is type 2 diabetic male with autonomic neuropathy. The test is described as follows: Case report: elevated blood pressure with autonomic neuropathy treated with the subject method. The note with it: 200/120 before treatment despite intensive insulin therapy; 5 years of use.
Description: as §1, with “less. […]” for “less.”
as §2

The test system of test [4] is diabetic patients with leg ulcers. The test is described as follows: Case reports: diabetes related leg ulcers treated with the subject method. The note with it: ulcers not responding to any available therapy; listed as subject method.
Description: as §1, with “less. […]” for “less.”
as §2

Test [5] deals with type 2 diabetic patient with diabetes related kidney disease. The test is described as follows: Case report: diabetes related kidney disease (proteinuria) treated with the subject method. Conditions: 1500 milligrams per 24-hour period before treatment, increasing 500 milligrams/24 hours/year; 5 years of use.
Description: as §1, with “less. […]” for “less.”
as §2

Test [6] has as its system diabetic patients with neuropathy. The test is described as follows: Case reports: diabetic neuropathy patients treated with the subject method.
Description: as §1
After the circulating glucose measurement has been taken and the patient has the proper circulating glucose starting level, the patient is asked to consume a liquid or food containing glucose. The amount of glucose given to s diabetic patient ranges from 60 to 100 grams, but for small framed people the amount could be as low as 40 grams of glucose. However, the amount of initial glucose given to the patient may vary. Liquid or food containing glucose is consumed by the patient to prevent the patient from becoming hypoglycemic. The preferred liquid or food is GLUCOLA, but any similar type of liquid or high glycemic food, including but not limited to cake and bread, containing glucose may be given to the patient. In a non-diabetic patient more glucose may be required than in the diabetic patient, but the other parameters would remain the same, including the need for a pulsed delivery of insulin.
Pulses of insulin are then administered intravenously at planned intervals of time, usually every six minutes. However other intervals may be used from as low as every three minutes up to every 30 minutes. For diabetic patients the amount of insulin in each pulse is 10-200 milliunits of insulin per kilogram of body weight; for non-diabetic patients the amount of insulin in each pulse is slightly lower. […]
as §2

Test [7] has as its system diabetic patients with retinopathy. The test is described as follows: Case reports: diabetic retinopathy patients treated with the subject method. Conditions: single patients with retinopathy; listed as subject method.
Description: as §1, with “less. […]” for “less.”
as §2

Test [8] has as its system type 1 DM patients with nephropathy. The test is described as follows: 18-month multi-center controlled study of Chronic Intermittent Intravenous Insulin Therapy (CIIIT) on progression of diabetic nephropathy. The method, then:
A study was conducted to assess the effects of Chronic Intermittent Intravenous Insulin Therapy (CIIIT) on the progression of diabetic nephropathy in patients with type 1 diabetes mellitus (DM). This 18-month multi-center, prospective, controlled study involved 49 type 1 DM patients with nephropathy who were following the Diabetes Control and Complications Trial (DCCT) intensive therapy (IT) regimen. Of these, 26 patients formed the control group C, which continued on IT, while 23 patients formed the treatment group (T) and underwent, in addition to IT, weekly CIIIT.
For all of the above listed examples, after the initial few days of treatment, the patients underwent treatment once a week, each treatment day consisting of three infusions of insulin accompanied by ingestion of carbohydrates. The infusion device used to infuse the insulin was the BIONICA MD-110 pump. Typically there were ten pulses given over a period of one hour, and a rest period of one hour was taken between infusions of insulin. The form in which the carbohydrates were ingested changed from time to time and included eating foods of high glycemic index including but not limited to bread and cake. The patients' circulating glucose was measured once every thirty minutes by the finger stick method currently used by most diabetic patients. […]

Setting [9] is: type 1 person with severe neuropathy, Example 14.

Regarding insulin, the “cardiac clinical outcome after treatment” value in test [1] (single patients with diabetes related heart disease, listed as subject method) is “no longer required a heart transplant; also recorded: could withstand 4-vessel by-pass surgery; also recorded: condition improved to the point where the doctors performed two instead of one grafts”. Besides, the “daily insulin intake after treatment” value in test [1] (type 2 patient with dilated cardiomyopathy, 150 units a day before treatment) is given as 24-26 units/day. Besides, the “ejection fraction after treatment” value in test [1] (type 2 patient with severe dilated cardiomyopathy, 14-19% before treatment, 10 years of treatment) is reported as 29-32%. In addition, in test [2] (listed as Hepatic Activation), the “dementia symptoms after treatment” value was “significant improvement in their motor skills, memory, and cognitive function”. Also, the “dementia symptoms after treatment” value in test [2] (listed as present invention) was “clearly shown improvement in confusion, weakness, disorientation, cognitive function and lack of memory”. Also, the “blood pressure after treatment” value in test [3] is given as 120/80. The “leg ulcer outcome after treatment” value in test [4] was “ulcers on their second leg healed; also recorded: ulcers healed and have never returned”. The proteinuria after treatment in test [5] is on record as 600-800 milligrams/24 hours. For the same substance, the “neuropathic pain after treatment” value in test [6] (single patients with polyneuropathy / painful peripheral neuropathy, weekly treatment, listed as subject method) is “pain has been reduced to the point where the person enjoys rigorous exercise; also recorded: no longer takes pain medication and has no twinges of pain in their legs; also recorded: pain had subsided to the point where they no longer used a wheelchair”. Moreover, in test [6] (setting [9]), the gastroparesis after treatment entry was “gastroparesis was reversed” and the “numbness in legs after treatment” value is listed as “numbness in their legs has gone away”. Moreover, in test [6] (type 1 person, bed-ridden with autonomic neuropathy before treatment, two years of use), the “autonomic neuropathy symptoms after treatment (overall disease state)” value is on record as “reversed all of the diseases to the point where they have taken themself off disability”. In addition, the “eyesight / retinal outcome after treatment” value in test [7] is “eyesight improved to the point where night driving was no longer a concern; also recorded: the bleeding stopped, and there was no further deterioration of the retina”. Moreover, the “effect on progression of diabetic nephropathy (conclusion)” value in test [8] (CIIIT added to IT in type 1 DM patients with overt nephropathy) was “markedly reduce the progression of diabetic nephropathy”. Moreover, in test [8] (T group (n=23): DCCT intensive therapy (IT) plus weekly CIIIT, 18 months, control group C on IT alone 7.69±1.88 ml/min/yr, P=0.0343), the “rate of creatinine clearance (CrCl) decline” value was found to be 2.21±1.62 ml/min/yr.
